Reference: US6737383B1, “Herbicidal oxadiazolidines” (priority 1999, dated 2004)

How the values were obtained:
[1] = test system: purple nutsedge; test: Test B pre/postemergence purple nutsedge; type: in vivo, Cyperus rotundus
Method in brief: (§1)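 Test chemicals in a non-phytotoxic solvent mixture with surfactant were sprayed preemergence onto planted seeds and postemergence onto plants 2 to 18 cm tall (1- to 4-leaf stage). After twelve to sixteen days in a greenhouse, injury was visually rated against untreated controls from 0 (no effect) to 10 (complete control).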

[2] = test system: bedstraw; test: Test B pre/postemergence bedstraw; type: in vivo, Galium aparine
Method in brief: as §1

[3] = test system: morningglory; test: Test B pre/postemergence morningglory; type: in vivo, Ipomoea hederacea
Method in brief: as §1

[4] = test system: surinam grass; test: Test B pre/postemergence surinam grass; type: in vivo, Brachiaria decumbens
Method in brief: as §1

[5] = test system: cocklebur; test: Test B pre/postemergence cocklebur; type: in vivo, Xanthium strumarium
Method in brief: as §1

[6] = test system: bamyardgrass; test: Test B flood test barnyardgrass; type: in vivo, Echinochloa crus-galli
Method in brief: (§2)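 Read-out is a visual response score from 0 (no effect) to 10 (complete control), assigned by comparison with untreated controls. Treatment was applied at the 2-leaf stage, and plants stayed in the greenhouse for twelve to sixteen days before scoring.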

[7] = test system: pigweed; test: Test B pre/postemergence pigweed; type: in vivo, Amaranthus retroflexus
Method in brief: as §1

[8] = test system: wheat; test: Test B pre/postemergence wheat; type: in vivo, Triticum aestivum
Method in brief: as §1

[9] = test system: smallflower flatsedge; test: Test B flood test smallflower flatsedge; type: in vivo, Cyperus difformis
Method in brief: as §2

[10] = test system: sugar beet; test: Test B pre/postemergence sugar beet; type: in vivo, Beta vulgaris
Method in brief: as §1

[11] = test system: giant foxtail; test: Test B pre/postemergence giant foxtail; type: in vivo, Setaria faberii
Method in brief: as §1

[12] = test system: duck salad; test: Test B flood test duck salad; type: in vivo, Heteranthera limosa
Method in brief: as §2

[13] = test system: blackgrass; test: Test B pre/postemergence blackgrass; type: in vivo, Alopecurus myosuroides
Method in brief: as §1

[14] = test system: wild oat; test: Test B pre/postemergence wild oat; type: in vivo, Avena fatua
Method in brief: as §1

[15] = test system: soybean; test: Test B pre/postemergence soybean; type: in vivo, Glycine max
Method in brief: as §1

[16] = test system: rape; test: Test B pre/postemergence rape; type: in vivo, Brassica napus
Method in brief: as §1

[17] = Postemergence, Rate 62 g/ha, scale 0 to 10, 0 is no effect, 10 is complete control
[18] = Postemergence, Rate 250 g/ha, scale 0 to 10, 0 no effect, 10 complete control
[19] = Preemergence, Rate 62 g/ha, scale 0 to 10 (0 no effect, 10 complete control)
[20] = Preemergence, Rate 125 g/ha, scale 0 to 10 (0 no effect, 10 complete control)
[21] = Preemergence, Rate 250 g/ha, scale of 0 to 10 where 0 is no effect and 10 is complete control
[22] = Preemergence, Rate 500 g/ha, scale 0 (no effect) to 10 (complete control)
[23] = Rate 125 g/ha, Postemergence, scale 0 to 10, 0 no effect, 10 complete control
[24] = Rate 500 g/ha, Postemergence, scale 0 to 10, 0 no effect, 10 complete control
[25] = Rate 125 g/ha, Postemergence section (flood test species), scale 0 to 10, 0 no effect, 10 complete control
[26] = Rate 500 g/ha, listed under Postemergence (flood test species), scale 0 to 10, 0 no effect, 10 complete control
[27] = flood test, listed under Postemergence, Rate 250 g/ha, scale 0 to 10, 0 no effect, 10 complete control

Structure (SMILES): Cc1ccccc1-n1c(=O)on(C(=O)N(c2cc(F)cc(F)c2)C(C)C)c1=O [Compound 67]
- Nutsedge plant response rating [1, 17]: 0
- Nutsedge plant response rating [1, 18]: 0
- Nutsedge plant response rating [1, 19]: 0
- Plant response rating, Nutsedge [1, 20]: 0
- Plant response rating, Nutsedge [1, 21]: 0
- Nutsedge plant response rating [1, 22]: 0
- Nutsedge plant response rating [1, 23]: 0
- Nutsedge plant response rating [1, 24]: 0
- Bedstraw plant response rating [2, 17]: 0
- Bedstraw plant response rating [2, 18]: 7
- Bedstraw plant response rating [2, 19]: 0
- Plant response rating, Bedstraw [2, 20]: 0
- Plant response rating, Bedstraw [2, 21]: 0
- Bedstraw plant response rating [2, 22]: 0
- Bedstraw plant response rating [2, 23]: 5
- Bedstraw plant response rating [2, 24]: 8
- Morningglory plant response rating [3, 17]: 0
- Morningglory plant response rating [3, 18]: 2
- Morningglory plant response rating [3, 19]: 0
- Plant response rating, Morningglory [3, 20]: 0
- Plant response rating, Morningglory [3, 21]: 0
- Morningglory plant response rating [3, 22]: 0
- Morningglory plant response rating [3, 23]: 2
- Morningglory plant response rating [3, 24]: 6
- B. signalgrass plant response rating [4, 17]: 0
- B. signalgrass plant response rating [4, 18]: 0
- B. signalgrass plant response rating [4, 19]: 0
- Plant response rating, B. signalgrass [4, 20]: 0
- Plant response rating, B. signalgrass [4, 21]: 0
- B. signalgrass plant response rating [4, 22]: 2
- B. signalgrass plant response rating [4, 23]: 0
- B. signalgrass plant response rating ([4]; Rate 500 g/ha, Postemergence, scale of 0 to 10 where 0 is no effect and 10 is complete control): 0
- Cocklebur plant response rating [5, 17]: 0
- Cocklebur plant response rating [5, 18]: 1
- Cocklebur plant response rating [5, 19]: 0
- Plant response rating, Cocklebur [5, 20]: 0
- Plant response rating, Cocklebur [5, 21]: 0
- Cocklebur plant response rating [5, 22]: 0
- Cocklebur plant response rating [5, 23]: 0
- Cocklebur plant response rating [5, 24]: 1
- Barnyardgrass plant response rating [6, 17]: 0
- Barnyardgrass plant response rating [6, 25]: 0
- Barnyardgrass plant response rating [6, 26]: 0
- Barnyardgrass plant response rating [6, 27]: 0
- Redroot pigweed plant response rating [7, 17]: 0
- Redroot pigweed plant response rating [7, 18]: 0
- Redroot pigweed plant response rating [7, 19]: 4
- Plant response rating, Redroot pigweed [7, 20]: 4
- Plant response rating, Redroot pigweed [7, 21]: 9
- Redroot pigweed plant response rating [7, 22]: 10
- Redroot pigweed plant response rating [7, 23]: 0
- Redroot pigweed plant response rating [7, 24]: 4
- Wheat plant response rating [8, 17]: 0
- Wheat plant response rating [8, 18]: 0
- Wheat plant response rating [8, 19]: 0
- Plant response rating, Wheat [8, 20]: 0
- Plant response rating, Wheat [8, 21]: 0
- Wheat plant response rating [8, 22]: 0
- Wheat plant response rating [8, 23]: 0
- Wheat plant response rating [8, 24]: 0
- S. Flatsedge plant response rating [9, 17]: 0
- S. Flatsedge plant response rating [9, 25]: 0
- S. Flatsedge plant response rating [9, 26]: 0
- S. Flatsedge plant response rating [9, 27]: 0
- Sugarbeets plant response rating [10, 17]: 0
- Sugarbeets plant response rating [10, 18]: 0
- Sugarbeets plant response rating [10, 19]: 0
- Plant response rating, Sugarbeets [10, 20]: 0
- Plant response rating, Sugarbeets [10, 21]: 0
- Sugarbeets plant response rating [10, 22]: 3
- Sugarbeets plant response rating [10, 23]: 0
- Sugarbeets plant response rating [10, 24]: 2
- Giant foxtail plant response rating [11, 17]: 0
- Giant foxtail plant response rating [11, 18]: 0
- Giant foxtail plant response rating [11, 19]: 3
- Plant response rating, Giant foxtail [11, 20]: 7
- Plant response rating, Giant foxtail [11, 21]: 8
- Giant foxtail plant response rating [11, 22]: 8
- Giant foxtail plant response rating [11, 23]: 0
- Giant foxtail plant response rating [11, 24]: 0
- Ducksalad plant response rating [12, 17]: 0
- Ducksalad plant response rating [12, 25]: 0
- Ducksalad plant response rating [12, 26]: 0
- Ducksalad plant response rating [12, 27]: 0
- Blackgrass plant response rating [13, 17]: 0
- Blackgrass plant response rating [13, 18]: 0
- Blackgrass plant response rating [13, 19]: 0
- Plant response rating, Blackgrass [13, 20]: 0
- Plant response rating, Blackgrass [13, 21]: 2
- Blackgrass plant response rating [13, 22]: 2
- Blackgrass plant response rating [13, 23]: 0
- Blackgrass plant response rating [13, 24]: 0
- Wild oats plant response rating [14, 17]: 0
- Wild oats plant response rating [14, 18]: 0
- Wild oats plant response rating [14, 19]: 0
- Plant response rating, Wild oats [14, 20]: 0
- Plant response rating, Wild oats [14, 21]: 0
- Wild oats plant response rating [14, 22]: 2
- Wild oats plant response rating [14, 23]: 0
- Wild oats plant response rating [14, 24]: 0
- Soybean plant response rating [15, 17]: 0
- Soybean plant response rating [15, 18]: 1
- Soybean plant response rating [15, 19]: 0
- Plant response rating, Soybean [15, 20]: 0
- Plant response rating, Soybean [15, 21]: 0
- Soybean plant response rating [15, 22]: 0
- Soybean plant response rating [15, 23]: 1
- Soybean plant response rating [15, 24]: 1
- Rape plant response rating [16, 17]: 0
- Rape plant response rating [16, 18]: 0
- Rape plant response rating [16, 19]: 0
- Plant response rating, Rape [16, 20]: 0
- Plant response rating, Rape [16, 21]: 0
- Rape plant response rating [16, 22]: 0
- Rape plant response rating [16, 23]: 0
- Rape plant response rating [16, 24]: 2
